These results are taken from US6596863B2, “Medical composition containing nitroetheneamine Derivative or salt there of as active constituent” (Ishihara Sangyo Kaisha, Ltd., priority 1998, dated 2003).

The target of series [1] is T1, human MMP-9 (gelatinase B) (Homo sapiens, UniProt P14780).
T1 construct: endogenous in cells; host or cells: HT1080 human fibrosarcoma cells (ATCC CCL-121), PMA-stimulated; enzyme purified from the culture supernatant
Nature of the series: Inhibition activity against human MMP-9 (gelatinase B), fluorescent peptide substrate. The series is classed as biochemical. The protocol:
Human MMP-9 (gelatinase B) was purified by the following method from a culture supernatant of HT1080 cells (human fibrosarcoma).
2.5×10^6 HT1080 cells (ATCC CCL-121, purchased from Dainippon Seiyaku) were inoculated to a tissue culture dish (Code No. 3020-100, manufactured by Iwaki Glass Co., Ltd.) having a diameter of 10 cm and containing 10 ml of Dulbecco's Modified Eagle Medium (DME, No. D-5648, manufactured by Sigma Co.) containing 10% fetal bovine serum (FBS: REHATUIN™, Code No. 1020-90, manufactured by Intergen Co.) and cultured for 72 hours at 37° C. in an atmosphere comprising 5% of CO2 and 95% of air (Carbon Dioxide Incubator LNA-122D Model, manufactured by Tabai Co.). Then, the medium was changed to 10 ml of a DME culture medium containing no FBS, and phorbol 12-myristate 13-acetate (PMA, code No. 163-114851, manufactured by Wako Pure Chemical Industries, Ltd.) was added so that the final concentration became 10 ng/ml. Under the same conditions, the culturing was carried out for further 20 hours, whereupon the culture supernatant was collected and subjected to cool centrifugation at 4° C. for 5 minutes (cool centrifugal separator, manufactured by Hitachi) to remove cell fragments.
The pH of a conditioned medium (50 ml) containing MMP-9, thus prepared, was adjusted to 8.0 with 0.2N NaOH. […] Namely, the above-mentioned conditioned medium was passed through DEAE-Sephacel (manufactured by Pharmacia, gel volume: about 35 ml) preliminarily equilibrated with 50 mM Tris-HCl, pH 8.0 (A buffer), and a non-adsorption fraction was collected. Then, it was added to Dye Matrix Gel Green A (manufactured by Amicon Co., gel volume: about 6 ml) preliminarily equilibrated with 50 mM Tris-HCl, pH 7.5/10 MM CaCl2/0.05% Brij 35/0.02% NaN3 (B buffer) and thoroughly washed with the same buffer, whereupon the adsorbed enzyme was eluted with a 1M NaCl-containing B buffer. About 7.5 ml of the eluted fraction was diluted twice with the B buffer and added to Gelatin-Sepharose 4B (manufactured by Pharmacia, gel volume: about 6 ml) preliminarily equilibrated with a 0.5 M NaCl-containing B buffer. It was thoroughly washed with a 0.5M NaCl-containing B buffer, and eluted with the B buffer containing 10% of dimethylsulfoxide (DMSO) and 0.5 M of NaCl. 5.5 ml of the eluted fraction was dialyzed against a 0.1 M NaCl-containing B buffer to obtain 5.2 ml of a purified enzyme solution. The purified MMP-9 standard product was confirmed to have a single band of 92 kDa by a protein staining by SDS electrophoresis, and further, it was confirmed to have an adequate gelatin decomposing activity by gelatinzymography (carried out in accordance with a method by Howard E. W. et al; Journal Biological Chemistry, Vol. 266, 13064-13069, 1991) and to have an adequate substrate decomposing activity by the after-mentioned measurement employing a fluorescent peptide substrate specific to MMP.
The inhibition activity against human MMP-9 was measured by the following method in accordance with the method by C. G. Knight et al (FEBS Letters, Vol, 296, 263-266, 1992) employing a fluorescent peptide substrate (7-methoxycoumarin-4-yl)Acetyl-Pro-Leu-Gly-Leu-(3-[2,4-dinitrophenyl]—Ala—Arg-NH2, Code 3163-VC, manufactured by Peptide Institute, Inc.
Further, as the case requires, commercially available human MMP-9 purified enzyme (No. YU-18003, manufactured by Kabushiki Kaisha Yagai Chuo Kenkyusho; used in a final concentration of from 0.0125 to 0.025 unit/ml, No. CC079, manufactured by Chemicon International, Inc.; used in a final concentration of 0.2 μg/ml) was used for the tests. […]

Where [2] appears, read: intermediates, compounds of the formula (IV), 1st measurement, read-out: MMP-9 inhibition activities IC50, 1st.
The mark [3] stands for this setting: intermediates, compounds of the formula (IV), 2nd measurement, read-out: MMP-9 inhibition activities IC50, 2nd.
[4] abbreviates: intermediates, compounds of the formula (IV), average of 1st and 2nd (or single measurement), read-out: MMP-9 inhibition activities IC50, Average.
The mark [5] stands for this setting: compounds of the formula (I), 1st measurement, read-out: MMP-9 inhibition activities IC50, 1st.
The mark [6] stands for this setting: compounds of the formula (I), 2nd measurement, read-out: MMP-9 inhibition activities IC50, 2nd.
Where [7] appears, read: compounds of the formula (I), average of 1st and 2nd (or single measurement), read-out: MMP-9 inhibition activities IC50, Average.

Molecules are shown by their SMILES. Read-outs that look alike come from different tables or passages of the source.

T1 sequence (P14780 107-707 limits assumed): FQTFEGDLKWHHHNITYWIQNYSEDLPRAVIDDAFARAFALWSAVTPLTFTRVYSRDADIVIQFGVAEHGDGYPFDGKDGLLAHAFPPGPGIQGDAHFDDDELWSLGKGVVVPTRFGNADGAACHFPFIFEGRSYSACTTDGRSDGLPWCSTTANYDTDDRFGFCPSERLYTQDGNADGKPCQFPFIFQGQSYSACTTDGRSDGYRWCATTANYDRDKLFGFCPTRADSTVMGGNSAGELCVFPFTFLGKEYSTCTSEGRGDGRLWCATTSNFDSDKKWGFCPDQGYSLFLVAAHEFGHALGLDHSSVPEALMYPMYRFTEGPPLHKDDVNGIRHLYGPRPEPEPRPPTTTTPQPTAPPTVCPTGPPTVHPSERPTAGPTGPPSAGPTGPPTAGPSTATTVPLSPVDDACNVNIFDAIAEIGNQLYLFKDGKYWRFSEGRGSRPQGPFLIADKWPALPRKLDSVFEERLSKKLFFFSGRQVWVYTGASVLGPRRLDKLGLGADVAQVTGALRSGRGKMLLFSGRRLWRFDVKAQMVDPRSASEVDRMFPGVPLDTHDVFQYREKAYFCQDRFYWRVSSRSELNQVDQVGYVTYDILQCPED

In the case of `CCOC(=O)c1ccc(NC(=C[N+](=O)[O-])SC)cc1` [Intermediate 50], the melting point – broadly, the temperature, or range, at which the solid turns liquid – lay within 116 to 123 °C. Besides, the IC50 (as a rule, the concentration that inhibits the measured activity by half) in series [1] (setting [2]) was determined as 33.9 µM. In series [1] (setting [3]), the half-inhibitory concentration (IC50) was 25.3 µM. Also, in series [1] (setting [4]), the half-inhibitory concentration (IC50) was 29.6 µM.
`CNC(=C[N+](=O)[O-])NNc1ncccn1` [compound 45]: the melting point is 182 to 183 °C (dec.). Further, the half-inhibitory concentration (IC50) in series [1] (setting [5]) is 33.8 µM. Besides, the IC50 in series [1] (setting [6]) was 26.3 µM. In addition, in series [1] (setting [7]), the IC50 is 30.1 µM.
In the case of `CNC(=C[N+](=O)[O-])NNc1c(Cl)cncc1Cl` [compound 186], the melting point is 197 °C (dec.). Also, the IC50 in series [1] (setting [5]) was 12.3 µM. In addition, the IC50 in series [1] (setting [7]) was 12.3 µM.
`O=[N+]([O-])C=C(NNc1cc(C(F)(F)F)cc(Cl)n1)NS(=O)(=O)c1ccccc1` [compound 159]: the melting point was 170 to 173 °C (dec.). Moreover, the IC50 in series [1] (setting [5]) turned out to be 7.9 µM. Moreover, the half-inhibitory concentration (IC50) in series [1] (setting [7]) turned out to be 7.9 µM.
Regarding `CNC(=C[N+](=O)[O-])NNc1cccc(Cl)c1` [Compound No. 9], the melting point was 191 °C (dec.). Moreover, in series [1] (setting [5]), the 50% inhibitory concentration (IC50) is 42.2 µM. For the same compound, the IC50 in series [1] (setting [6]) is 43.9 µM. The IC50 in series [1] (setting [7]) is 43.1 µM.
On to `NNC(=C[N+](=O)[O-])NCc1ccccn1` [compound 79], for which the melting point was 190 °C (dec.). The IC50 in series [1] (setting [5]) came to 39 µM. In addition, the IC50 in series [1] (setting [6]) amounted to 36.6 µM. In addition, in series [1] (setting [7]), the IC50 came out at 37.8 µM.
`CNC(=C[N+](=O)[O-])NNc1cc(C(F)(F)F)cc(OCCc2ccccn2)n1` [compound 124]: the melting point was 181 °C (dec.). Moreover, in series [1] (setting [5]), the half-inhibitory concentration (IC50) is 16.1 µM. For the same compound, the half-inhibitory concentration (IC50) in series [1] (setting [6]) was determined as 18.6 µM. In addition, the IC50 in series [1] (setting [7]) was found to be 17.4 µM.
The like results for `C=CCOc1cc(C(F)(F)F)cc(NNC(=C[N+](=O)[O-])NC)n1` [compound 130] were, in that order, 175 °C (dec.), 7.7 µM, 8.4 µM and 8.1 µM.
The like results for `CNC(=C[N+](=O)[O-])NN=CC=Cc1ccccc1` [compound 144] were, in that order, 180 °C (dec.), 4.8 µM, 14.9 µM and 9.9 µM.
As for `CNC(=C[N+](=O)[O-])NNC(O)C(F)(F)F` (stereo not drawn) [compound 23], the melting point was 144 to 145 °C. For the same compound, in series [1] (setting [5]), the IC50 was 42.5 µM. Further, the IC50 in series [1] (setting [6]) is 54.8 µM. Moreover, the half-inhibitory concentration (IC50) in series [1] (setting [7]) came out at 48.7 µM.
On the same counts, the results for `CNC(=C[N+](=O)[O-])NNc1nc(OC)nc(OC)n1` [compound 104] are 202 to 203 °C (dec.), 21.1 µM, 17.5 µM and 19.3 µM.
Take `CNC(=C[N+](=O)[O-])NNc1cccc(C(=O)O)c1` [compound 42]: the melting point amounted to 250 °C. For the same compound, in series [1] (setting [5]), the half-maximal inhibitory concentration (IC50) is 41.4 µM. In series [1] (setting [6]), the IC50 came out at 40.7 µM. In series [1] (setting [7]), the half-inhibitory concentration (IC50) was found to be 41.4 µM.
For `COc1ccc(NC(=C[N+](=O)[O-])SC)cn1` [Intermediate 49], the melting point is 134 to 137 °C. Besides, the half-inhibitory concentration (IC50) in series [1] (setting [2]) turned out to be 29.5 µM. Besides, the IC50 in series [1] (setting [3]) came to 29 µM. The concentration for half-maximal inhibition (IC50) in series [1] (setting [4]) stood at 29.3 µM.
Consider `CCCCOCCOc1cc(C(F)(F)F)cc(NNC(=C[N+](=O)[O-])NC)n1` [compound 192], for which the melting point was 128 °C. The IC50 in series [1] (setting [5]) amounted to 8.1 µM. Further, in series [1] (setting [6]), the IC50 worked out at 13.6 µM. The concentration for half-maximal inhibition (IC50) in series [1] (setting [7]) is 10.9 µM.
The like results for `CNC(=C[N+](=O)[O-])NNc1ccc(C)cc1` [Compound No. 16] were, in that order, 186 °C (dec.), 49.8 µM, 43.9 µM and 46.8 µM.
`CNC(=C[N+](=O)[O-])NN=Cc1ccc(C(F)(F)F)cc1` [compound 166] showed a melting point of 188 to 189 °C. Further, the IC50 in series [1] (setting [5]) is 7.8 µM. In addition, the IC50 in series [1] (setting [7]) turned out to be 7.8 µM.
With `CCCOc1ccc(NC(=C[N+](=O)[O-])NN)cc1` [compound 71], the melting point was 179 °C (dec.). Besides, the IC50 in series [1] (setting [5]) is 42.9 µM. Also, in series [1] (setting [6]), the half-inhibitory concentration (IC50) is 37.4 µM. Besides, in series [1] (setting [7]), the IC50 is 40.2 µM.
On the same counts, the results for `CCCCOc1cc(C(F)(F)F)cc(NNC(=C[N+](=O)[O-])NC)n1` [compound 178] are 161 °C (dec.), 11.8 µM, 12.5 µM and 12.2 µM.
The like results for `CNC(=C[N+](=O)[O-])NNc1cc(OC)nc(OC)n1` [compound 101] were, in that order, 160 to 162 °C (dec.), 37.8 µM, 18.5 µM and 28.2 µM.
As to `CSC(=C[N+](=O)[O-])Nc1ccc2c(c1)C(=O)CO2` [Intermediate 52], the melting point is 221 to 222 °C (dec.). For the same compound, in series [1] (setting [2]), the half-inhibitory concentration (IC50) came out at 61.5 µM. In addition, the half-maximal inhibitory concentration (IC50) in series [1] (setting [3]) was 50.4 µM. The IC50 in series [1] (setting [4]) was 56 µM.
On the same counts, the results for `CSC(=C[N+](=O)[O-])NC1CCCC1` [Intermediate 3] are 82 to 87.5 °C, 21.3 µM, 37.3 µM and 29.3 µM.
As to `CNC(=C[N+](=O)[O-])NNc1cc(C(F)(F)F)cc(OC)n1` [Compound No. 98, N-methyl-1-(2-(4-trifluoromethyl-6-methoxy-2-pyridyl)hydrazino)-2-nitroetheneamine], the melting point is 193 °C (dec.). Moreover, the IC50 in series [1] (setting [5]) came to 8.8 µM. Further, the IC50 in series [1] (setting [6]) came to 7.8 µM. Moreover, the 50% inhibitory concentration (IC50) in series [1] (setting [7]) was 8.3 µM.
The like results for `CNC(=C[N+](=O)[O-])NNc1ccccc1[N+](=O)[O-]` [compound 11] were, in that order, 194 °C (dec.), 31.9 µM, 33.7 µM and 32.8 µM.
Turning to `Cc1cc(C)c(S(C)(=O)=O)c(NNC(=C[N+](=O)[O-])NS(C)(=O)=O)n1` [compound 202], the melting point was 170 °C (dec.). Besides, the concentration for half-maximal inhibition (IC50) in series [1] (setting [5]) stood at 6.3 µM. The IC50 in series [1] (setting [7]) is 6.3 µM.
In turn, `COc1ccccc1NC(=C[N+](=O)[O-])NN` [compound 57] displayed a melting point of 135.5 to 136 °C. In addition, the IC50 in series [1] (setting [5]) worked out at 38.7 µM. Besides, the IC50 in series [1] (setting [6]) stood at 35.1 µM. Also, in series [1] (setting [7]), the half-inhibitory concentration (IC50) worked out at 36.6 µM.
The like results for `CNC(=C[N+](=O)[O-])NN=C(C)c1ccncc1` [compound 38] were, in that order, 199 °C (dec.), 13.7 µM, 19.1 µM and 16.4 µM.
On the same counts, the results for `CNC(=C[N+](=O)[O-])NN=Cc1ccccc1` [compound 18] are 159 to 160 °C, 18.3 µM, 26.6 µM and 22.5 µM.
On the same counts, the results for `CNC(=C[N+](=O)[O-])NN=Cc1ccc(C)cc1` [compound 137] are 172 °C (dec.), 17.7 µM, 37.1 µM and 27.4 µM.
